Data published in BigSolDB 2.1.

N#CCNC(=O)c1cnccc1C(F)(F)F
solubility (mole fraction)
Settings	283.15 K	288.15 K	293.15 K	298.15 K	303.15 K	308.15 K	313.15 K	318.15 K	323.15 K
in 1,4-dioxane	–	0.0145	0.0175	0.0208	0.0248	0.0295	0.0348	0.041	0.0482
in THF	0.0263	0.0302	0.0343	0.0387	0.044	0.0502	0.057	0.0645	0.072
in acetone	0.0359	0.041	0.0464	0.0527	0.0595	0.0677	0.0766	0.0871	0.099
in acetonitrile	0.0173	0.0206	0.0245	0.0289	0.034	0.0404	0.0475	0.0557	0.0657
in ethanol	0.00429	0.00546	0.00686	0.00856	0.0107	0.0133	0.0163	0.0202	0.0246
in ethyl acetate	0.00961	0.0114	0.0134	0.0158	0.0182	0.0213	0.0248	0.0288	0.033
in isobutanol	0.00152	0.00202	0.00264	0.00343	0.00441	0.00561	0.0071	0.00885	0.011
in isopropanol	0.00249	0.00328	0.00424	0.00543	0.00696	0.00893	0.0114	0.0144	0.0181
in methanol	0.00943	0.0115	0.0139	0.0168	0.0202	0.0241	0.0286	0.034	0.0402
in n-butanol	0.00298	0.00376	0.00475	0.00589	0.00731	0.00906	0.0111	0.0138	0.0169
in n-butyl acetate	0.00479	0.00572	0.00684	0.00806	0.00932	0.011	0.0128	0.015	0.0173
in n-propanol	0.00267	0.00344	0.00436	0.00552	0.00691	0.00874	0.0109	0.0138	0.0174
